{
  "source": "paper PMC4865823",
  "about": "“Plant phosphomannose isomerase as a selectable marker for rice transformation” (Scientific Reports, 2016)",
  "system": "T1, OsPMI2 (GST-OsPMI2)",
  "T1 construct": "full CDS, N-terminal GST tag kept, E. coli Rosetta (DE3) pLysS; denatured from inclusion bodies and recovered",
  "assay": "PGI/G6PDH-coupled assay, NADP reduction at […] nm, Lineweaver-Burk",
  "type": "biochemical, Oryza sativa subsp. japonica",
  "settings": "50 mM Tris-HCl pH 7.5, 30 °C; M-6-P to F-6-P; enzyme recovered from denatured inclusion bodies",
  "data": [
    {"smiles": "O=P(O)(O)OC[C@H]1OC(O)[C@@H](O)[C@@H](O)[C@@H]1O", "note": "(stereo partly shown) [mannose-6-phosphate]", "values": [
      {"measurement": "Km", "value": "6.462 ± 0.0479", "unit": "mM"}
    ]}
  ]
}
